Test results taken from patent publication US20020045638A1, “Method of treating estrogen receptor positive carcinoma” (priority 2000, published 2002).

Legend:
[1] = system: MCF-7 human breast cancer cells; test: Inhibition of growth of MCF-7 breast cancer cells (MTT), with MacSynergy II synergy analysis; conditions: for Antagonsim / Synergy: MCF-7, antiestrogen in combination with CCI-779, MacSynergy II, Bliss independence model; for synergy of growth inhibition (in words): MCF-7 cells, in combination with CCI-779;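 for all read-outs here: cells treated five or six days with single agents or combinations, growth read by MTT, synergy surface equals observed % inhibition minus Bliss additive prediction, values under 0% signal antagonism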
Procedure: MCF-7 human breast cancer cells were maintained at 37° C. in a humidified atmosphere of 5% CO2 and 95% air in IMEM medium supplemented with 10% fetal bovine serum. […] One day before the experiment, cells were plated in 96-well plates at a cell density of 2,500 cells/well in IMEM medium supplemented with 10% fetal bovine serum. The next day, cells were treated with various concentrations of antiestrogen and rapamycin 42-ester with 3-hydroxy-2-(hydroxymethyl)-2-methylpropionic acid (referred to as CCI-779 in the tables below). Five or six-days later, cell growth was monitored. MTT solution (20 ul) (0.5 mg/ml) was added to each well and cells were incubated for an additional 4 h. The solution was then removed and 150 ul of DMSO added. The intensity of dark blue color corresponding to number of cells was read at 540 nm with an automated plate reader.
Briefly, theoretical additive interactions were calculated from the dose-response curves of each individual drug based on Bliss independence model. The calculated additive surface was then subtracted from the experimental surface to obtain a synergy surface representing % inhibition above the calculated additive value-synergy index. […] Likewise, any peak below the 0% plane is indicative of antagonism.

[2] = system: BG-1 human ovarian cancer cells; test: Inhibition of growth of BG-1 ovarian cancer cells (MTT), with MacSynergy II synergy analysis; assay type: cell-based; conditions: for Antagonsim / Synergy: BG-1, antiestrogen in combination with CCI-779, MacSynergy II, Bliss independence model; for Percent Inhibition: CCI-779 0 nM
Procedure: In these test procedures, rapamycin 42-ester with 3-hydroxy-2-(hydroxymethyl)-2-methylpropionic acid was used as a representative rapamycin, and 2-(4-hydroxy-phenyl)-3-methyl-1-[4-(2-piperdin-1-yl-ethoxy)-benzyl-1 H-indol-5-ol, raloxifene, and 4-hydroxytamoxifen were used as representative antiestrogens.
One day before the experiment, cells were plated in 96-well plates at a cell density of 2,500 cells/well in IMEM medium supplemented with 10% fetal bovine serum. The next day, cells were treated with various concentrations of antiestrogen and rapamycin 42-ester with 3-hydroxy-2-(hydroxymethyl)-2-methylpropionic acid (referred to as CCI-779 in the tables below). Five or six-days later, cell growth was monitored.

## O=C(c1ccc(OCCN2CCCCC2)cc1)c1c(-c2ccc(O)cc2)sc2cc(O)ccc12 [RAL, raloxifene, reference compound]
[1]
  Antagonsim: 0.0 μM^2%
  Synergy: 113.0 μM^2%
  synergy of growth inhibition (in words): synergistic inhibition
[1]; Table C, CCI-779 0 nM, Raloxifene 0.25 nM
  Percent Inhibition: −1.4%
[1]; Table C, CCI-779 0 nM, Raloxifene 0.5 nM
  Percent Inhibition: −5.17%
[1]; Table C, CCI-779 0 nM, Raloxifene 1 nM
  Percent Inhibition: 17.3%
[1]; Table C, CCI-779 0 nM, Raloxifene 2 nM
  Percent Inhibition: 36.78%
[1]; Table C, CCI-779 0 nM, Raloxifene 3 nM
  Percent Inhibition: 42.4%
[1]; Table C, CCI-779 0 nM, Raloxifene 4 nM
  Percent Inhibition: 50.49%
[1]; Table C, CCI-779 0 nM, Raloxifene 5 nM
  Percent Inhibition: 50.5%
[2]
  Antagonsim: −1.8 μM^2%
  Synergy: 40.3 μM^2%
[2]; Table I, Raloxifene 0.25 nM
  Percent Inhibition: 0.74%
[2]; Table I, Raloxifene 0.5 nM
  Percent Inhibition: −3.32%
[2]; Table I, Raloxifene 1 nM
  Percent Inhibition: 7.79%
[2]; Table I, Raloxifene 2 nM
  Percent Inhibition: 9.85%
[2]; Table I, Raloxifene 3 nM
  Percent Inhibition: 11.5%
[2]; Table I, Raloxifene 4 nM
  Percent Inhibition: 14.49%
[2]; Table I, Raloxifene 5 nM
  Percent Inhibition: 14.04%

## CCC(=C(c1ccc(O)cc1)c1ccc(OCCN(C)C)cc1)c1ccccc1 [TAM, 4-hydroxytamoxifen, reference compound]
[1]
  Antagonsim: 0.0 μM^2%
  Synergy: 77.00 μM^2%
  synergy of growth inhibition (in words): synergistic inhibition
[1]; Table B, CCI-779 0 nM, 4-Hydroxytamoxifen 5 nM
  Percent Inhibition: 20.44%
[1]; Table B, CCI-779 0 nM, 4-Hydroxytamoxifen 10 nM
  Percent Inhibition: 22.75%
[1]; Table B, CCI-779 0 nM, 4-Hydroxytamoxifen 20 nM
  Percent Inhibition: 39.85%
[1]; Table B, CCI-779 0 nM, 4-Hydroxytamoxifen 30 nM
  Percent Inhibition: 41.46%
[1]; Table B, CCI-779 0 nM, 4-Hydroxytamoxifen 40 nM
  Percent Inhibition: 39.09%
[1]; Table B, CCI-779 0 nM, 4-Hydroxytamoxifen 50 nM
  Percent Inhibition: 47.19%
[1]; Table B, CCI-779 0 nM, 4-Hydroxytamoxifen 100 nM
  Percent Inhibition: 36.99%
[1]; Table F, 4-Hydroxytamoxifen 0 nM + 4-Hydroxytamoxifen 5 nM
  Percent Inhibition: 25.02%
[1]; Table F, 4-Hydroxytamoxifen 0 nM + 4-Hydroxytamoxifen 10 nM
  Percent Inhibition: 37.37%
[1]; Table F, 4-Hydroxytamoxifen 0 nM + 4-Hydroxytamoxifen 20 nM
  Percent Inhibition: 44.9%
[1]; Table F, 4-Hydroxytamoxifen 0 nM + 4-Hydroxytamoxifen 30 nM
  Percent Inhibition: 42.42%
[1]; Table F, 4-Hydroxytamoxifen 0 nM + 4-Hydroxytamoxifen 40 nM
  Percent Inhibition: 46.46%
[1]; Table F, 4-Hydroxytamoxifen 0 nM + 4-Hydroxytamoxifen 50 nM
  Percent Inhibition: 45.78%
[1]; Table F, 4-Hydroxytamoxifen 0 nM + 4-Hydroxytamoxifen 100 nM
  Percent Inhibition: 49.99%
[1]; Table F, 4-Hydroxytamoxifen 5 nM + 4-Hydroxytamoxifen 0 nM
  Percent Inhibition: 12.73%
[1]; Table F, 4-Hydroxytamoxifen 5 nM + 4-Hydroxytamoxifen 5 nM
  Percent Inhibition: 37.12%
[1]; Table F, 4-Hydroxytamoxifen 5 nM + 4-Hydroxytamoxifen 10 nM
  Percent Inhibition: 49.04%
[1]; Table F, 4-Hydroxytamoxifen 5 nM + 4-Hydroxytamoxifen 20 nM
  Percent Inhibition: 50.12%
[1]; Table F, 4-Hydroxytamoxifen 5 nM + 4-Hydroxytamoxifen 30 nM
  Percent Inhibition: 50.39%
[1]; Table F, 4-Hydroxytamoxifen 5 nM + 4-Hydroxytamoxifen 40 nM
  Percent Inhibition: 54.19%
[1]; Table F, 4-Hydroxytamoxifen 5 nM + 4-Hydroxytamoxifen 50 nM
  Percent Inhibition: 53.75%
[1]; Table F, 4-Hydroxytamoxifen 5 nM + 4-Hydroxytamoxifen 100 nM
  Percent Inhibition: 59.23%
[1]; Table F, 4-Hydroxytamoxifen 10 nM + 4-Hydroxytamoxifen 0 nM
  Percent Inhibition: 27.87%
[1]; Table F, 4-Hydroxytamoxifen 10 nM + 4-Hydroxytamoxifen 5 nM
  Percent Inhibition: 47.71%
[1]; Table F, 4-Hydroxytamoxifen 10 nM + 4-Hydroxytamoxifen 10 nM
  Percent Inhibition: 47.11%
[1]; Table F, 4-Hydroxytamoxifen 10 nM + 4-Hydroxytamoxifen 20 nM
  Percent Inhibition: 45.86%
[1]; Table F, 4-Hydroxytamoxifen 10 nM + 4-Hydroxytamoxifen 30 nM
  Percent Inhibition: 47.6%
[1]; Table F, 4-Hydroxytamoxifen 10 nM + 4-Hydroxytamoxifen 40 nM
  Percent Inhibition: 53.22%
[1]; Table F, 4-Hydroxytamoxifen 10 nM + 4-Hydroxytamoxifen 50 nM
  Percent Inhibition: 56.54%
[1]; Table F, 4-Hydroxytamoxifen 10 nM + 4-Hydroxytamoxifen 100 nM
  Percent Inhibition: 58.11%
[1]; Table F, 4-Hydroxytamoxifen 50 nM + 4-Hydroxytamoxifen 0 nM
  Percent Inhibition: 39.46%
[1]; Table F, 4-Hydroxytamoxifen 50 nM + 4-Hydroxytamoxifen 5 nM
  Percent Inhibition: 48.51%
[1]; Table F, 4-Hydroxytamoxifen 50 nM + 4-Hydroxytamoxifen 10 nM
  Percent Inhibition: 51.71%
[1]; Table F, 4-Hydroxytamoxifen 50 nM + 4-Hydroxytamoxifen 20 nM
  Percent Inhibition: 46.36%
[1]; Table F, 4-Hydroxytamoxifen 50 nM + 4-Hydroxytamoxifen 30 nM
  Percent Inhibition: 42.54%
[1]; Table F, 4-Hydroxytamoxifen 50 nM + 4-Hydroxytamoxifen 40 nM
  Percent Inhibition: 48.3%
[1]; Table F, 4-Hydroxytamoxifen 50 nM + 4-Hydroxytamoxifen 50 nM
  Percent Inhibition: 50.98%
[1]; Table F, 4-Hydroxytamoxifen 50 nM + 4-Hydroxytamoxifen 100 nM
  Percent Inhibition: 58.57%
[1]; Table F, 4-Hydroxytamoxifen 100 nM + 4-Hydroxytamoxifen 0 nM
  Percent Inhibition: 46.41%
[1]; Table F, 4-Hydroxytamoxifen 100 nM + 4-Hydroxytamoxifen 5 nM
  Percent Inhibition: 52.37%
[1]; Table F, 4-Hydroxytamoxifen 100 nM + 4-Hydroxytamoxifen 10 nM
  Percent Inhibition: 50.34%
[1]; Table F, 4-Hydroxytamoxifen 100 nM + 4-Hydroxytamoxifen 20 nM
  Percent Inhibition: 47.64%
[1]; Table F, 4-Hydroxytamoxifen 100 nM + 4-Hydroxytamoxifen 30 nM
  Percent Inhibition: 48.22%
[1]; Table F, 4-Hydroxytamoxifen 100 nM + 4-Hydroxytamoxifen 40 nM
  Percent Inhibition: 51.79%
[1]; Table F, 4-Hydroxytamoxifen 100 nM + 4-Hydroxytamoxifen 50 nM
  Percent Inhibition: 55.29%
[1]; Table F, 4-Hydroxytamoxifen 100 nM + 4-Hydroxytamoxifen 100 nM
  Percent Inhibition: 61.34%
[1]; Table F, 4-Hydroxytamoxifen 200 nM + 4-Hydroxytamoxifen 0 nM
  Percent Inhibition: 45.75%
[1]; Table F, 4-Hydroxytamoxifen 200 nM + 4-Hydroxytamoxifen 5 nM
  Percent Inhibition: 54.54%
[1]; Table F, 4-Hydroxytamoxifen 200 nM + 4-Hydroxytamoxifen 10 nM
  Percent Inhibition: 51.06%
[1]; Table F, 4-Hydroxytamoxifen 200 nM + 4-Hydroxytamoxifen 20 nM
  Percent Inhibition: 52%
[1]; Table F, 4-Hydroxytamoxifen 200 nM + 4-Hydroxytamoxifen 30 nM
  Percent Inhibition: 49.75%
[1]; Table F, 4-Hydroxytamoxifen 200 nM + 4-Hydroxytamoxifen 40 nM
  Percent Inhibition: 59.13%
[1]; Table F, 4-Hydroxytamoxifen 200 nM + 4-Hydroxytamoxifen 50 nM
  Percent Inhibition: 59.05%
[1]; Table F, 4-Hydroxytamoxifen 200 nM + 4-Hydroxytamoxifen 100 nM
  Percent Inhibition: 61.13%
[1]; Table F, 4-Hydroxytamoxifen 400 nM + 4-Hydroxytamoxifen 0 nM
  Percent Inhibition: 48.85%
[1]; Table F, 4-Hydroxytamoxifen 400 nM + 4-Hydroxytamoxifen 5 nM
  Percent Inhibition: 52.28%
[1]; Table F, 4-Hydroxytamoxifen 400 nM + 4-Hydroxytamoxifen 10 nM
  Percent Inhibition: 58.29%
[1]; Table F, 4-Hydroxytamoxifen 400 nM + 4-Hydroxytamoxifen 20 nM
  Percent Inhibition: 56.61%
[1]; Table F, 4-Hydroxytamoxifen 400 nM + 4-Hydroxytamoxifen 30 nM
  Percent Inhibition: 57.28%
[1]; Table F, 4-Hydroxytamoxifen 400 nM + 4-Hydroxytamoxifen 40 nM
  Percent Inhibition: 59.68%
[1]; Table F, 4-Hydroxytamoxifen 400 nM + 4-Hydroxytamoxifen 50 nM
  Percent Inhibition: 67.28%
[1]; Table F, 4-Hydroxytamoxifen 400 nM + 4-Hydroxytamoxifen 100 nM
  Percent Inhibition: 64.92%
[2]
  Antagonsim: 0.0 μM^2%
  Synergy: 0.3 μM^2%
[2]; Table H, 4-Hydroxytamoxifen 5 nM
  Percent Inhibition: 23.99%
[2]; Table H, 4-Hydroxytamoxifen 10 nM
  Percent Inhibition: 21.39%
[2]; Table H, 4-Hydroxytamoxifen 20 nM
  Percent Inhibition: 35.05%
[2]; Table H, 4-Hydroxytamoxifen 30 nM
  Percent Inhibition: 36.43%
[2]; Table H, 4-Hydroxytamoxifen 40 nM
  Percent Inhibition: 39.51%
[2]; Table H, 4-Hydroxytamoxifen 50 nM
  Percent Inhibition: 47.73%
[2]; Table H, 4-Hydroxytamoxifen 100 nM
  Percent Inhibition: 50%
